pIC50: −log10 of the molar value.
biological target: T1, SYK kinase (Homo sapiens, UniProt P43405); test: SYK assay (OMNIA Kinase Assay, Invitrogen); type: biochemical; details: SYK Activities; 1 mM ATP, 10 μM Omnia Peptide Substrate Tyr 7, 30° C.
T1 construct: purchased Invitrogen, Carlsbad
Protocol: In the assay OMNIA® KINASE ASSAY by Invitrogen Corporation (Carlsbad) the effect of invention of a compound on the phosphorylation is determined by measurement of fluorescence intensity of a chelation-enhanced fluorophore called SOX. Upon phosphorylation of the peptide by the kinase of interest, Mg2+ is chelated to form a bridge between the SOX moiety and the phosphate group that is transferred to the specific tyrosine on the peptide. The fluorescence intensity is directly proportional to the amount of peptide phosphorylation.
To the wells of an 384 well small volume plate (Greiner, Frickenhausen) are added (i) the compound under test in 5% DMSO/distilled water (2 μl), (ii) 16 μl of the master mix containing ATP, DTT, Kinase Reaction Buffer, Omina Peptide Substrate Tyr 7 resulting in a final concentration of 1 mM ATP, 0.2 mM DTT and 10 μM Peptide Substrate. The Master Mix and the assay plate was incubated to reaction temperature before the measurement (30° C.). The reaction was started with addition of (iii) 2 μl 4 μg/ml SYK kinase (Invitrogen, Carlsbad). During measurement fluorescence intensitiy readings were collected using a TECAN M1000 at a wavelength of λex 360/λem 485 nm every 30 s for 30 minutes. The reaction velocity was plotted versus the inhibitor concentration to determine the IC50 using XLFit 5.0 (IDBS, Guildford) to fit to a sigmoidal dose response curve.

| pIC50 | Compound |
| --- | --- |
| 7.00 to 8.00 | CC(=O)N1CCC(n2cc(Nc3nc(-c4ccc5cn[nH]c5c4)nc4cn[nH]c34)cn2)CC1 [Example 133, 1-(4-(4-((5-(1H-indazol-6-yl)-1H-pyrazolo[4,3-d]pyrimidin-7-yl)amino)-1H-pyrazol-1-yl)piperidin-1-yl)ethan-1-one] |
| 7.00 to 8.00 | c1cc(-c2nc(Nc3cnn(C4CCCOC4)c3)c3[nH]ncc3n2)co1 (stereo not drawn) [Example 483, 5-(furan-3-yl)-N-(1-(tetrahydro-2H-pyran-3-yl)-1H-pyrazol-4-yl)-1H-pyrazolo[4,3-d]pyrimidin-7-amine] |
| 6.00 to 7.00 | N#CC1(n2cc(Nc3nc(-c4ccoc4)nc4cn[nH]c34)cn2)CCCCC1 [Example 219, 1-(4-((5-(furan-3-yl)-1H-pyrazolo[4,3-d]pyrimidin-7-yl)amino)-1H-pyrazol-1-yl)cyclohexanecarbonitrile] |
| 6.00 to 7.00 | O=C(C1CC1)N1CCCc2ccc(Nc3nc(C4CC4)nc4cn[nH]c34)cc21 [Example 503, cyclopropyl(7-((5-cyclopropyl-1H-pyrazolo[4,3-d]pyrimidin-7-yl)amino)-3,4-dihydroquinolin-1(2H)-yl)methanone] |
| 7.00 to 8.00 | CC(C)(C)n1cc(Nc2nc(-c3cocn3)nc3cn[nH]c23)cn1 [Example 243, N-(1-(tert-butyl)-1H-pyrazol-4-yl)-5-(oxazol-4-yl)-1H-pyrazolo[4,3-d]pyrimidin-7-amine] |
| 6.00 to 7.00 | COc1ccc(Nc2nc(-c3c(F)cccc3F)nc3cn[nH]c23)cc1NC(C)=O [Example 523, N-(5-((5-(2,6-difluorophenyl)-1H-pyrazolo[4,3-d]pyrimidin-7-yl)amino)-2-methoxyphenyl)acetamide] |
| 6.00 to 7.00 | CC1(c2nc(Nc3ccc(N4CCOCC4)cc3)c3[nH]ncc3n2)CC1 [Example 99, 5-(1-methylcyclopropyl)-N-(4-morpholinophenyl)-1H-pyrazolo[4,3-d]pyrimidin-7-amine] |
| > 8.00 | CN1CCC(n2cc(Nc3nc(-c4ccoc4)nc4cn[nH]c34)cn2)CC1 [Example 202, 5-(furan-3-yl)-N-(1-(1-methylpiperidin-4-yl)-1H-pyrazol-4-yl)-1H-pyrazolo[4,3-d]pyrimidin-7-amine] |
| 7.00 to 8.00 | COCCn1cc(Nc2nc(-c3ccco3)nc3cn[nH]c23)cn1 [Example 195, 5-(furan-2-yl)-N-(1-(2-methoxyethyl)-1H-pyrazol-4-yl)-1H-pyrazolo[4,3-d]pyrimidin-7-amine] |
| 6.00 to 7.00 | COc1ccc(Nc2nc(C3CCCCCC3)nc3cn[nH]c23)cc1OC [Example 388, 5-cycloheptyl-N-(3,4-dimethoxyphenyl)-1H-pyrazolo[4,3-d]pyrimidin-7-amine] |
| 7.00 to 8.00 | CC(C)(C)n1cc(Nc2nc(-c3ccco3)nc3cn[nH]c23)cn1 [Example 212, N-(1-(tert-butyl)-1H-pyrazol-4-yl)-5-(furan-2-yl)-1H-pyrazolo[4,3-d]pyrimidin-7-amine] |
| 6.00 to 7.00 | CC(C)c1nc(Nc2cnn(C3CCOCC3)c2)c2[nH]ncc2n1 [Example 182, 5-isopropyl-N-(1-(tetrahydro-2H-pyran-4-yl)-1H-pyrazol-4-yl)-1H-pyrazolo[4,3-d]pyrimidin-7-amine] |
| 6.00 to 7.00 | Cc1c(Nc2nc(C3CCC3)nc3cn[nH]c23)cnn1C(C)C [Example 325, 5-cyclobutyl-N-(1-isopropyl-5-methyl-1H-pyrazol-4-yl)-1H-pyrazolo[4,3-d]pyrimidin-7-amine] |
| 6.00 to 7.00 | Fc1cc(Nc2nc(-c3ccon3)nc3cn[nH]c23)ccc1N1CCOCC1 [Example 75, N-(3-fluoro-4-morpholinophenyl)-5-(isoxazol-3-yl)-1H-pyrazolo[4,3-d]pyrimidin-7-amine] |
| 7.00 to 8.00 | Cn1cc(-c2nc(Nc3ccc(N4CCOCC4)cc3)c3[nH]ncc3n2)cn1 [Example 121, 5-(1-methyl-1H-pyrazol-4-yl)-N-(4-morpholinophenyl)-1H-pyrazolo[4,3-d]pyrimidin-7-amine] |
| 6.00 to 7.00 | CC(C)(C)c1nc(Nc2cnn(C3CC3)c2)c2[nH]ncc2n1 [Example 273, 5-(tert-butyl)-N-(1-cyclopropyl-1H-pyrazol-4-yl)-1H-pyrazolo[4,3-d]pyrimidin-7-amine] |
| 6.00 to 7.00 | CN1CCN(c2ccc(Nc3nc(-c4ccco4)nc4cn[nH]c34)cn2)CC1 [Example 114, 5-(furan-2-yl)-N-(6-(4-methylpiperazin-1-yl)pyridin-3-yl)-1H-pyrazolo[4,3-d]pyrimidin-7-amine] |
| 6.00 to 7.00 | COc1ccc(Nc2nc(-c3ccc(C)s3)nc3cn[nH]c23)cc1OC [Example 8, N-(3,4-dimethoxyphenyl)-5-(5-methylthiophen-2-yl)-1H-pyrazolo[4,3-d]pyrimidin-7-amine] |

| pIC50 | Compound |
| --- | --- |
| 6.00 to 7.00 | CC(C)n1ncc(Nc2nc(C3CCC3)nc3cn[nH]c23)c1Cl [Example 312, N-(5-chloro-1-isopropyl-1H-pyrazol-4-yl)-5-cyclobutyl-1H-pyrazolo[4,3-d]pyrimidin-7-amine] |
| 7.00 to 8.00 | CC(C)C(C)n1cc(Nc2nc(-c3ccoc3)nc3cn[nH]c23)cn1 (stereo not drawn) [Example 482, 5-(furan-3-yl)-N-(1-(3-methylbutan-2-yl)-1H-pyrazol-4-yl)-1H-pyrazolo[4,3-d]pyrimidin-7-amine] |
| 6.00 to 7.00 | Nc1ccccc1-c1nc(Nc2cnn(C3CCOCC3)c2)c2n[nH]cc2n1 [Example 531, 5-(2-aminophenyl)-N-(1-(tetrahydro-2H-pyran-4-yl)-1H-pyrazol-4-yl)-2H-pyrazolo[4,3-d]pyrimidin-7-amine] |
| > 8.00 | c1nn(C2CCNC2)cc1Nc1nc(-c2ccc3cn[nH]c3c2)nc2cn[nH]c12 (stereo not drawn) [Example 447, 5-(1H-indazol-6-yl)-N-(1-(pyrrolidin-3-yl)-1H-pyrazol-4-yl)-1H-pyrazolo[4,3-d]pyrimidin-7-amine] |
| 6.00 to 7.00 | c1nc(-c2nc(Nc3cnn(C4CCOCC4)c3)c3[nH]ncc3n2)co1 [Example 127, 5-(oxazol-4-yl)-N-(1-(tetrahydro-2H-pyran-4-yl)-1H-pyrazol-4-yl)-1H-pyrazolo[4,3-d]pyrimidin-7-amine] |
| 7.00 to 8.00 | NS(=O)(=O)c1cccc(-c2nc(Nc3cnn(CCO)c3)c3[nH]ncc3n2)c1 [Example 526, 3-(7-((1-(2-hydroxyethyl)-1H-pyrazol-4-yl)amino)-1H-pyrazolo[4,3-d]pyrimidin-5-yl)benzenesulfonamide] |
| 6.00 to 7.00 | COc1ccc(Nc2nc(-c3ccon3)nc3cn[nH]c23)cc1OC [Example 73, N-(3,4-dimethoxyphenyl)-5-(isoxazol-3-yl)-1H-pyrazolo[4,3-d]pyrimidin-7-amine] |
| 7.00 to 8.00 | CC(C)(O)Cn1cc(Nc2nc(-c3ccco3)nc3cn[nH]c23)cn1 [Example 451, 1-(4-((5-(furan-2-yl)-1H-pyrazolo[4,3-d]pyrimidin-7-yl)amino)-1H-pyrazol-1-yl)-2-methylpropan-2-ol] |
| 6.00 to 7.00 | c1cncc(-c2nc(Nc3ccc(N4CCOCC4)nc3)c3[nH]ncc3n2)c1 [Example 126, N-(6-morpholinopyridin-3-yl)-5-(pyridin-3-yl)-1H-pyrazolo[4,3-d]pyrimidin-7-amine] |
| 6.00 to 7.00 | Cc1nn(C2CCOCC2)cc1Nc1nc(-c2ccoc2)nc2cn[nH]c12 [Example 294, 5-(furan-3-yl)-N-(3-methyl-1-(tetrahydro-2H-pyran-4-yl)-1H-pyrazol-4-yl)-1H-pyrazolo[4,3-d]pyrimidin-7-amine] |
| 6.00 to 7.00 | COc1cc(Nc2nc([C@H]3C[C@@H]3c3ccccc3)nc3cn[nH]c23)ccc1N1CCOCC1 [Example 508, N-(3-methoxy-4-morpholinophenyl)-5-((1S,2S)-2-phenylcyclopropyl)-1H-pyrazolo[4,3-d]pyrimidin-7-amine] |
| 6.00 to 7.00 | CCN1C(=O)COc2ccc(Nc3nc(-c4ccoc4)nc4cn[nH]c34)cc21 [Example 485, 4-ethyl-6-((5-(furan-3-yl)-1H-pyrazolo[4,3-d]pyrimidin-7-yl)amino)-2H-benzo[b][1,4]oxazin-3(4H)-one] |
| > 8.00 | CC(C)n1cc(Nc2nc(-c3ccoc3)nc3cn[nH]c23)cn1 [Example 220, 5-(furan-3-yl)-N-(1-isopropyl-1H-pyrazol-4-yl)-1H-pyrazolo[4,3-d]pyrimidin-7-amine] |
| 7.00 to 8.00 | FCCn1cc(Nc2nc(-c3ccco3)nc3cn[nH]c23)cn1 [Example 367, N-(1-(2-fluoroethyl)-1H-pyrazol-4-yl)-5-(furan-2-yl)-1H-pyrazolo[4,3-d]pyrimidin-7-amine] |
| > 8.00 | CC(=O)N1CCC(n2cc(Nc3nc(-c4ccco4)nc4cn[nH]c34)cn2)CC1 [Example 196, 1-(4-(4-((5-(furan-2-yl)-1H-pyrazolo[4,3-d]pyrimidin-7-yl)amino)-1H-pyrazol-1-yl)piperidin-1-yl)ethan-1-one] |
| > 8.00 | CC(=O)N1CCC(n2cc(Nc3nc(-c4ccoc4)nc4cn[nH]c34)cn2)CC1 [Example 200, 1-(4-(4-((5-(furan-3-yl)-1H-pyrazolo[4,3-d]pyrimidin-7-yl)amino)-1H-pyrazol-1-yl)piperidin-1-yl)ethan-1-one] |
| 7.00 to 8.00 | COc1cc(Nc2nc(-c3ccccc3F)nc3cn[nH]c23)ccc1N1CCOCC1 [Example 25, 5-(2-fluorophenyl)-N-(3-methoxy-4-morpholinophenyl)-1H-pyrazolo[4,3-d]pyrimidin-7-amine] |
| 6.00 to 7.00 | CCCc1nc(Nc2ccc(N3CCOCC3)cc2)c2[nH]ncc2n1 [Example 386, N-(4-morpholinophenyl)-5-propyl-1H-pyrazolo[4,3-d]pyrimidin-7-amine] |

— patent US9637491B2, “Pyrazolo[4,3-D]pyrimidines as kinase inhibitors” (Origenis GmbH, priority 2012, dated 2017)
